Measured values: BigSolDB 2.1

CCCCCC[n+]1ccn(C)c1.O=[N+]([O-])[O-]
solubility (mole fraction)
Settings	in benzene	in cyclohexane	in m-xylene	in n-heptane	in n-hexane	in n-octane	in n-pentane	in o-xylene	in p-xylene	in toluene
278.15 K	–	–	–	–	–	–	0.000359	–	–	–
283.15 K	–	–	–	–	–	–	0.000397	–	–	–
288.15 K	–	–	–	–	0.000306	–	0.000442	–	–	–
293.15 K	–	0.000304	–	–	0.000362	0.000203	0.000484	–	–	–
298.15 K	0.000219	0.000357	0.00239	–	0.00042	0.000234	0.000534	0.00133	0.000795	0.000278
303.15 K	0.000263	0.0004	0.00271	–	0.000492	0.000268	0.000578	0.00145	0.000896	0.000334
308.15 K	0.000308	0.000446	0.00303	–	0.000575	0.000299	–	0.0016	0.00102	0.00039
313.15 K	0.000382	0.000516	0.00337	0.000268	0.000693	0.000344	–	0.00173	0.00114	0.000482
318.15 K	0.000454	0.000592	0.00376	0.000358	0.000794	0.00038	–	0.00187	0.00128	0.000585
323.15 K	0.000536	0.000674	0.00413	0.00049	0.000895	0.000421	–	0.00198	0.00141	0.000686
328.15 K	0.00061	0.000751	0.00458	0.000629	0.000995	0.000458	–	0.00213	0.00155	0.000776
333.15 K	0.000714	0.000857	0.00505	0.000841	0.00113	0.000518	–	0.00227	0.00169	0.000904
338.15 K	0.000832	0.00097	0.00553	0.00109	–	0.000568	–	0.0024	0.00182	0.00106
343.15 K	0.000962	–	0.00607	0.00142	–	0.000631	–	0.00253	0.00199	0.00123

CCCCCCCC[n+]1ccn(C)c1.O=[N+]([O-])[O-]
solubility (mole fraction)
Settings	in benzene	in cyclohexane	in m-xylene	in n-heptane	in n-hexane	in n-octane	in n-pentane	in o-xylene	in p-xylene	in toluene
278.15 K	–	–	–	–	–	–	0.000687	–	–	–
283.15 K	–	–	–	–	–	–	0.000816	–	–	–
288.15 K	–	–	–	–	0.000683	–	0.000955	–	–	–
293.15 K	–	0.000775	–	0.000342	0.00078	0.000355	0.0011	–	–	–
298.15 K	0.000303	0.000901	0.00526	0.000407	0.000919	0.000411	0.00127	0.005	0.00308	0.000371
303.15 K	0.000357	0.00106	0.00566	0.000488	0.00113	0.000502	0.00149	0.00529	0.00331	0.00043
308.15 K	0.00041	0.00124	0.00605	0.000586	0.00128	0.000605	–	0.00558	0.00358	0.0005
313.15 K	0.00049	0.00146	0.00645	0.000728	0.00162	0.000733	–	0.00587	0.00383	0.000598
318.15 K	0.000572	0.00169	0.00685	0.000856	0.00184	0.000866	–	0.00616	0.00408	0.000699
323.15 K	0.000661	0.00191	0.00725	0.00101	0.00206	0.00101	–	0.00646	0.00431	0.000806
328.15 K	0.000751	0.00212	0.00765	0.00119	0.00232	0.00123	–	0.00675	0.00458	0.000892
333.15 K	0.00086	0.00244	0.00805	0.00143	0.00271	0.00145	–	0.00704	0.00483	0.00103
338.15 K	0.000981	0.00275	0.00845	0.00166	–	0.00168	–	0.00733	0.00508	0.00117
343.15 K	0.00111	–	0.00885	0.00193	–	0.00198	–	0.00762	0.00533	0.00133
